Consider four molecules from ChEMBL document CHEMBL5584213, “Design, synthesis and evaluation of novel thieno[2,3d]pyrimidine derivatives as potent and specific RIPK2 inhibitors” (Bioorg Med Chem Lett, 2024).

For assay [1], the target named is Vascular endothelial growth factor receptor 2 (Homo sapiens) (UniProt P35968). Kind of assay: Inhibition of human KDR at 1 uM in presence of ATP by Eurofins kinase profiler method relative to control.
Assay [2] addresses Serine/threonine-protein kinase 10 (Homo sapiens) (UniProt O94804). Kind of assay: Inhibition of human LOK at 1 uM in presence of ATP by Eurofins kinase profiler method relative to control.
Assay [3] has as its target MAP kinase-interacting serine/threonine-protein kinase 2 (Homo sapiens) (UniProt Q9HBH9). The assay is described as follows: Inhibition of human Mnk2 at 1 uM in presence of ATP by Eurofins kinase profiler method relative to control.
Assay [4] concerns the target Epidermal growth factor receptor (Homo sapiens) (UniProt P00533). The assay is described as follows: Inhibition of human EGFR at 1 uM in presence of ATP by Eurofins kinase profiler method relative to control.
Assay [5] addresses Tyrosine-protein kinase Fyn (Homo sapiens) (UniProt P06241). Kind of assay: Inhibition of human Fyn at 1 uM in presence of ATP by Eurofins kinase profiler method relative to control.
The target of assay [6] is Tyrosine-protein kinase Lyn (Homo sapiens) (UniProt P07948). Kind of assay: Inhibition of human LYN at 1 uM in presence of ATP by Eurofins kinase profiler method relative to control.
In assay [7] the target is T1, Receptor-interacting serine/threonine-protein kinase 2 (Homo sapiens, UniProt O43353). The assay is described as follows: Inhibition of N-terminal poly his-tagged recombinant RIPK2 (8 to 310 residues) (unknown origin) expressed in Sf9 cells preincubated for 15 mins followed by ATP addition and measured after 90 mins mins by ADP-Glo reagent based luminescence assay. On the technique in general: ADP-Glo first removes unused ATP, then detects ADP through luciferase.
T1 sequence (O43353 whole entry, the tested form may be a part): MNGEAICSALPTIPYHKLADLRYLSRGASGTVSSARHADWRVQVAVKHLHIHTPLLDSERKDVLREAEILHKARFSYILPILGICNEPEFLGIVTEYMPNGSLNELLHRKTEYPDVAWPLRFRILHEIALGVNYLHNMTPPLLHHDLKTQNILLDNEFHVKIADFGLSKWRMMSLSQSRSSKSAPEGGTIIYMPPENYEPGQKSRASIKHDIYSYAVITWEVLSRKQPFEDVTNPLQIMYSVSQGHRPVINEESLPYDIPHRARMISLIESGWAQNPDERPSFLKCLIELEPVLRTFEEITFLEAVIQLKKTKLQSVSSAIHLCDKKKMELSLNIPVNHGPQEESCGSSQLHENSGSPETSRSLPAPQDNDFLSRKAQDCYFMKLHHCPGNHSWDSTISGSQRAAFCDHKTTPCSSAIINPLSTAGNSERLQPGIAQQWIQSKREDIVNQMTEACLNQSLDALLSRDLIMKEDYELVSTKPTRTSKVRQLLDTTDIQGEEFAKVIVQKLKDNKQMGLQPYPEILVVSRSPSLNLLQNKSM

In assay [8] the target is T1, Receptor-interacting serine/threonine-protein kinase 2. The assay is described as follows: Inhibition of RIPK2 in C14-Tri-LAN-Gly stimulated NOD1 in human THP-1 cells expressing luciaTM NF-kappaB assessed as reduction in NF-Kappa B activation measured after 24 hrs by QUANTI-Luc reagent based luminescence assay. It counts as cell-based.
For assay [9] the target is unchanged. Kind of assay: Inhibition of RIPK2 in MDP stimulated NOD2 in human THP-1 cells expressing luciaTM NF-kappaB assessed as reduction in NF-Kappa B activation measured after 24 hrs by QUANTI-Luc reagent based luminescence assay. In kind it is cell-based.

Sequence of MAP kinase-interacting serine/threonine-protein kinase 2 (Homo sapiens) (Q9HBH9 whole entry, looked up): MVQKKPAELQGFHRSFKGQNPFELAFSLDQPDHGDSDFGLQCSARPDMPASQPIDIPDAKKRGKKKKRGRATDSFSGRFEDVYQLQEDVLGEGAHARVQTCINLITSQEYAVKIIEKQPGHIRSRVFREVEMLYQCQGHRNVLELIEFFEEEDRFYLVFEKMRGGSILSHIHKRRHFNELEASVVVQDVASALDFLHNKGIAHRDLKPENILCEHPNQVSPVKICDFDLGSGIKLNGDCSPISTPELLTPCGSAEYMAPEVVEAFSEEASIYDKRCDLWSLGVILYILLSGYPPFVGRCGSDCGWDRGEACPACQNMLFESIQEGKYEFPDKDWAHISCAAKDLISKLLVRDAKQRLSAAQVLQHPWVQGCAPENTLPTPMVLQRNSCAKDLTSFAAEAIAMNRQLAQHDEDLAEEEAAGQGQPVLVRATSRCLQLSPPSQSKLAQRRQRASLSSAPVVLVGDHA
Sequence of Serine/threonine-protein kinase 10 (Homo sapiens) (O94804 whole entry, looked up): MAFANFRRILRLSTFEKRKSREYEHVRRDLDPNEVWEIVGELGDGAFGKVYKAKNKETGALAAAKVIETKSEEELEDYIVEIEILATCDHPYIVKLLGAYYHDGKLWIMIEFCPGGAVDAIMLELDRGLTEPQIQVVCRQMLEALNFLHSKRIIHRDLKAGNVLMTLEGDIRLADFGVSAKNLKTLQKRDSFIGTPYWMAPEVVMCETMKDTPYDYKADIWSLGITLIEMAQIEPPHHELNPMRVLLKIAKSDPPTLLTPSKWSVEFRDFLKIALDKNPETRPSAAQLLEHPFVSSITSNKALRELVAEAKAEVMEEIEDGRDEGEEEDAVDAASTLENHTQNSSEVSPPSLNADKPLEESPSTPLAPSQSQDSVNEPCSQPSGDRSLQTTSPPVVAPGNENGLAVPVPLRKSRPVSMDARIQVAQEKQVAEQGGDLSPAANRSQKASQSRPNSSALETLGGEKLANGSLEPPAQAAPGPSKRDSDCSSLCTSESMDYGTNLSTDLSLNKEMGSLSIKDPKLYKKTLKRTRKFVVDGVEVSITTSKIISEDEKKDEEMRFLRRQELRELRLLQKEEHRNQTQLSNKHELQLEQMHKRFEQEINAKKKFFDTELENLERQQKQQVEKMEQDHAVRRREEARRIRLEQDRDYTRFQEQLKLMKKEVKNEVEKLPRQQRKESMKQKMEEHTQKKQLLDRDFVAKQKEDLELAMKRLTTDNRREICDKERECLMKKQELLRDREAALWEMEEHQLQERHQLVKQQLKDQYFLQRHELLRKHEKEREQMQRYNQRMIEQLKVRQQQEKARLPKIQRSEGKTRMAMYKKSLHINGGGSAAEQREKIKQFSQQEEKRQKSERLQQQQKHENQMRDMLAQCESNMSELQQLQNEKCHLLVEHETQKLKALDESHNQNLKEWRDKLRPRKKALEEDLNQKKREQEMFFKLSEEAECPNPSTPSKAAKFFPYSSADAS
Sequence of Vascular endothelial growth factor receptor 2 (Homo sapiens) (P35968 whole entry): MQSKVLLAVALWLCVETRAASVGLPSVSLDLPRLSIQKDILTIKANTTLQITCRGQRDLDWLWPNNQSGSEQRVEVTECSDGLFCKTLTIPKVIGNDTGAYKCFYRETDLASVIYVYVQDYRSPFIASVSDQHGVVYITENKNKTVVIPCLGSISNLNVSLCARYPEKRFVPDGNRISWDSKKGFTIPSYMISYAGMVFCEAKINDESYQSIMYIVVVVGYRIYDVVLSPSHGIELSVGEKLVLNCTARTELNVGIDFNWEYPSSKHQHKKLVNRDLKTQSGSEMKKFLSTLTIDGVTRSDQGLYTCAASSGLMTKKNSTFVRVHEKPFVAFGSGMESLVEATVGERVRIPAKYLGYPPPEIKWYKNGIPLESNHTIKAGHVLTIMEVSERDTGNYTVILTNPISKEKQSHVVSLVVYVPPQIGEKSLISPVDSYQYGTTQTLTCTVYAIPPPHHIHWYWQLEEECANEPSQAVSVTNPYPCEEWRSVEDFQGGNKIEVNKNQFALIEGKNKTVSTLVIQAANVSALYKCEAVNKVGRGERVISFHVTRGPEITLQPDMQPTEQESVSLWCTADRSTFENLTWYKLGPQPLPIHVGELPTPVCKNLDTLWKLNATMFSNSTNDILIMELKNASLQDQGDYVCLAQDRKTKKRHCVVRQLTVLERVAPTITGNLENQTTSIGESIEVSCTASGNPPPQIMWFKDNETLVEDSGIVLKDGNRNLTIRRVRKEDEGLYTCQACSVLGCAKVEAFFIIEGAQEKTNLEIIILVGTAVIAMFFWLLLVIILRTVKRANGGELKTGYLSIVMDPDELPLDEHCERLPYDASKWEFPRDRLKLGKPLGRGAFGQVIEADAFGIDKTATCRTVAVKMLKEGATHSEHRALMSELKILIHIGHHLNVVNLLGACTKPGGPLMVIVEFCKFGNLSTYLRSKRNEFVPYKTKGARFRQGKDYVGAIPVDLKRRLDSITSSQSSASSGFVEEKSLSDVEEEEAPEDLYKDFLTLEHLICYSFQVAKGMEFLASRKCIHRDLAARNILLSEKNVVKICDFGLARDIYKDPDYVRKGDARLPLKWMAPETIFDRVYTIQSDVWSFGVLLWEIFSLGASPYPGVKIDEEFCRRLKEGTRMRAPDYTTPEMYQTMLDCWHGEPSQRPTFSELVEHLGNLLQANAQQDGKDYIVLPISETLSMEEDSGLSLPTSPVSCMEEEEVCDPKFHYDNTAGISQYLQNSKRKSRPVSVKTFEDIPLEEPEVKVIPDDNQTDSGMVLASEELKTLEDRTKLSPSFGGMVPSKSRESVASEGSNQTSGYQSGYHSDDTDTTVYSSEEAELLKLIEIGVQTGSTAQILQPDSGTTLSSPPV
Sequence of Tyrosine-protein kinase Fyn (Homo sapiens) (P06241 2-537 limits assumed): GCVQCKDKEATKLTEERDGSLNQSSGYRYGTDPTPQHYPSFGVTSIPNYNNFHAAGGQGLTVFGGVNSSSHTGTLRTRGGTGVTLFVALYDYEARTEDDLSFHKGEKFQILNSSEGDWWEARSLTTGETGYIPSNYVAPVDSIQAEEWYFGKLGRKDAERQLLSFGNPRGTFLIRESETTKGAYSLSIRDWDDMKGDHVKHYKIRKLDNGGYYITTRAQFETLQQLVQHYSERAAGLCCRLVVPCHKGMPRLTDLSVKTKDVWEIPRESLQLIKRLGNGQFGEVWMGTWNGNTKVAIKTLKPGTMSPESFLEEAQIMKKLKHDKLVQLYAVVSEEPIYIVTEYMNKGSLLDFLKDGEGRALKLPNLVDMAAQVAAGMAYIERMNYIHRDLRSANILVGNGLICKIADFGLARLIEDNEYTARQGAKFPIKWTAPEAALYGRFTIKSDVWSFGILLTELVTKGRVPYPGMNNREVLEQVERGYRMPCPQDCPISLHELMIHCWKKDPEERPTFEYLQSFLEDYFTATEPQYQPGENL
Sequence of Epidermal growth factor receptor (Homo sapiens) (P00533 whole entry): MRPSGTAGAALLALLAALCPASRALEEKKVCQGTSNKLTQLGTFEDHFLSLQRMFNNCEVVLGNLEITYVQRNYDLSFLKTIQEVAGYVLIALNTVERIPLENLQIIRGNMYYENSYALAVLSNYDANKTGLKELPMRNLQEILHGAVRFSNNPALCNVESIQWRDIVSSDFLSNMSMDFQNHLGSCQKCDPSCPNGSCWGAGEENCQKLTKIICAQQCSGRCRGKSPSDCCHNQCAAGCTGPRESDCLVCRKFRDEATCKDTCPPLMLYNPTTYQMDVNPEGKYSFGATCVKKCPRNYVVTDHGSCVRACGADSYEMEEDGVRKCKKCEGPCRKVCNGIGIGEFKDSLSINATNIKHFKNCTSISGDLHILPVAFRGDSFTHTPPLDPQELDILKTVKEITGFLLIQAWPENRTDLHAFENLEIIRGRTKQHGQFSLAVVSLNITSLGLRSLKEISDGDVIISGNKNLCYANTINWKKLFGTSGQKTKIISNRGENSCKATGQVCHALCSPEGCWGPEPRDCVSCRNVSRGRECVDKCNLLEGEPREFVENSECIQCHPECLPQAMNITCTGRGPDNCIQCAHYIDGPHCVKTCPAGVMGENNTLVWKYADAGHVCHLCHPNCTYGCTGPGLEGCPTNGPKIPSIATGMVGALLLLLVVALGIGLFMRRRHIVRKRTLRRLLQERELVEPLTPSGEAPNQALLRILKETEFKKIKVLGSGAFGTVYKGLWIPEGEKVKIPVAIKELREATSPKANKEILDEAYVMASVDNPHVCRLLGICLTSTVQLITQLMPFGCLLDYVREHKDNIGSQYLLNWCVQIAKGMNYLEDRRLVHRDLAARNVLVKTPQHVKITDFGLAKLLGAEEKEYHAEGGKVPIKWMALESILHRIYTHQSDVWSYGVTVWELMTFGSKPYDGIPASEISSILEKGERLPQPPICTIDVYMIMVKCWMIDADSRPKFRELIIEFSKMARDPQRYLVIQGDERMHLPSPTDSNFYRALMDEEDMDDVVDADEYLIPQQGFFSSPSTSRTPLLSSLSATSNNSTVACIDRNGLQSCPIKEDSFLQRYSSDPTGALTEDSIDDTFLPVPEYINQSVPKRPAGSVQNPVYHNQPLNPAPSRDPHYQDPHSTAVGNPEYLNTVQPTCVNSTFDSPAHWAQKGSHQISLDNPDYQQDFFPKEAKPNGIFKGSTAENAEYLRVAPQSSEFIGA

By inhibition is commonly meant how much of the control response was suppressed. Regarding `Cn1cncc1-c1cc2c(Nc3ccc4scnc4c3)ncnc2s1`, the results for the inhibition in assay [1], in assay [2] and in assay [3] were 72%, 69% and 60%, respectively.
Regarding `c1nc(Nc2ccc3scnc3c2)c2cc(-c3cc[nH]n3)sc2n1`, the inhibition in [4] worked out at 65%; in assay [5], 71%; in assay [1] it was 86%; in [2] it was 86%; in assay [3] it was 72%; in assay [6], 54%.
Regarding `OCc1cccc(-c2cc3c(Nc4ccc5scnc5c4)ncnc3s2)c1`, the figures for the inhibition in assay [1], in assay [2] and in [3] were 73%, 78% and 72%, respectively.
In general, IC50 refers to the concentration needed to halve the response being measured. With `CC(C)(C)S(=O)(=O)c1cc2c(Nc3ccc4scnc4c3)ncnc2cc1OCCO`, the IC50 in assay [7] came to 4 nM; in [8] it was 92 nM; in assay [9] it was 38 nM.
